Here are results for one compound from ChEMBL document CHEMBL5338754, “Identification of Binding Sites in the Nucleotide-Binding Domain of P-Glycoprotein for a Potent and Nontoxic Modulator, the Amine-Containing Monomeric Flavonoid FM04” (J Med Chem, 2023).

Series [1] addresses ATP-dependent translocase ABCB1 (Homo sapiens, UniProt P08183, Q1193A). In words: Negative allosteric modulator activity at human P-gp Q1193A mutant expressed in HEK293FT cells assessed as reversal of P-gp mediated PTX resistance by measuring sensitivity fold change incubated for 5 days by MTS assay. It counts as cell-based. To be noted: 120 h, time 5 day.
Series [2] addresses T1, ATP-dependent translocase ABCB1 (Homo sapiens, UniProt P08183, C1227A). In words: Negative allosteric modulator activity at human P-gp C1227A mutant expressed in HEK293FT cells assessed as reversal of P-gp mediated PTX resistance by measuring sensitivity fold change incubated for 5 days by MTS assay. It counts as cell-based. As to conditions: 120 h, time 5 day.
The target in series [3] is ATP-dependent translocase ABCB1 (Homo sapiens, UniProt P08183, Q1193T). In words: Negative allosteric modulator activity at human P-gp Q1193T mutant expressed in HEK293FT cells assessed as reversal of P-gp mediated PTX resistance by measuring sensitivity fold change incubated for 5 days by MTS assay. As to conditions: 120 h, time 5 day. It counts as cell-based.
Series [4] concerns the target ATP-dependent translocase ABCB1 (Homo sapiens, UniProt P08183, T1226A). Put plainly: Negative allosteric modulator activity at human P-gp T1226A mutant expressed in HEK293FT cells assessed as increase in intracellular doxorubicin accumulation using doxorubicin as substrate at 1 uM incubated for 150 mins by microplate reader assay (reference value: 89 +/- 4 %). It counts as cell-based. To be noted: 2.5 h.

For series [5], the target named is ATP-dependent translocase ABCB1 (Homo sapiens, UniProt P08183, L1113A). Put plainly: Negative allosteric modulator activity at human P-gp L1113A mutant expressed in HEK293FT cells assessed as increase in intracellular doxorubicin accumulation using doxorubicin as substrate at 1 uM incubated for 150 mins by microplate reader assay (reference value: 45.6 +/- 1.5 %). To be noted: 2.5 h. It counts as cell-based.

For series [6], the target named is T1, ATP-dependent translocase ABCB1. Put plainly: Negative allosteric modulator activity at human P-gp C1227A mutant expressed in HEK293FT cells assessed as increase in intracellular doxorubicin accumulation using doxorubicin as substrate at 1 uM incubated for 150 mins by microplate reader assay (reference value: 33.3 +/- 1.3 %). To be noted: 2.5 h. It counts as cell-based.

Series [7] has as its target ATP-dependent translocase ABCB1 (Homo sapiens, UniProt P08183, Q1193E). Put plainly: Negative allosteric modulator activity at human P-gp Q1193E mutant expressed in HEK293FT cells assessed as increase in intracellular doxorubicin accumulation using doxorubicin as substrate at 1 uM incubated for 150 mins by microplate reader assay (reference value: 62.9 +/- 1.4 %). It counts as cell-based. As to conditions: 2.5 h.

The target in series [8] is ATP-dependent translocase ABCB1 (Homo sapiens, UniProt P08183, Q1193N). Put plainly: Negative allosteric modulator activity at human P-gp Q1193N mutant expressed in HEK293FT cells assessed as increase in intracellular doxorubicin accumulation using doxorubicin as substrate at 1 uM incubated for 150 mins by microplate reader assay (reference value: 59.7 +/- 2.1 %). It counts as cell-based. To be noted: 2.5 h.

Series [9] deals with ATP-dependent translocase ABCB1 (Homo sapiens, UniProt P08183, G1114L). Put plainly: Negative allosteric modulator activity at human P-gp G1114L mutant expressed in HEK293FT cells assessed as increase in intracellular doxorubicin accumulation using doxorubicin as substrate at 1 uM incubated for 150 mins by microplate reader assay (reference value: 97.9 +/- 4.2 %). It counts as cell-based. As to conditions: 2.5 h.

Series [10] has as its target T2, ATP-dependent translocase ABCB1 (Homo sapiens, UniProt P08183, T1226Y). In words: Negative allosteric modulator activity at human P-gp T1226Y mutant expressed in HEK293FT cells assessed as increase in intracellular doxorubicin accumulation using doxorubicin as substrate at 1 uM incubated for 150 mins by microplate reader assay (reference value: 67.4 +/- 2 %). It counts as cell-based. As to conditions: 2.5 h.

In series [11] the target is T1, ATP-dependent translocase ABCB1. In words: Negative allosteric modulator activity at human P-gp C1227A mutant expressed in HEK293FT cells assessed as fold change in intracellular doxorubicin accumulation using doxorubicin as substrate at 1 uM incubated for 150 mins by microplate reader assay relative to DMSO. It counts as cell-based. As to conditions: 2.5 h.
Series [12] deals with T3, ATP-dependent translocase ABCB1 (Homo sapiens, UniProt P08183, Q1193F). Put plainly: Negative allosteric modulator activity at human P-gp Q1193F mutant expressed in HEK293FT cells assessed as fold change in intracellular doxorubicin accumulation using doxorubicin as substrate at 1 uM incubated for 150 mins by microplate reader assay relative to DMSO. To be noted: 2.5 h. It counts as cell-based.

Series [13] deals with ATP-dependent translocase ABCB1 (Homo sapiens, UniProt P08183, I1115K). Put plainly: Negative allosteric modulator activity at human P-gp I1115K mutant expressed in HEK293FT cells assessed as fold change in intracellular doxorubicin accumulation using doxorubicin as substrate at 1 uM incubated for 150 mins by microplate reader assay relative to DMSO. It counts as cell-based. As to conditions: 2.5 h.

In series [14] the target is ATP-dependent translocase ABCB1 (Homo sapiens, UniProt P08183, I1115E). In words: Negative allosteric modulator activity at human P-gp I1115E mutant expressed in HEK293FT cells assessed as fold change in intracellular doxorubicin accumulation using doxorubicin as substrate at 1 uM incubated for 150 mins by microplate reader assay relative to DMSO. It counts as cell-based. To be noted: 2.5 h.

Series [15] addresses ATP-dependent translocase ABCB1 (Homo sapiens, UniProt P08183, I1115L). Put plainly: Negative allosteric modulator activity at human P-gp I1115L mutant expressed in HEK293FT cells assessed as fold change in intracellular doxorubicin accumulation using doxorubicin as substrate at 1 uM incubated for 150 mins by microplate reader assay relative to DMSO. To be noted: 2.5 h. It counts as cell-based.

Series [16] has as its target T2, ATP-dependent translocase ABCB1. In words: Negative allosteric modulator activity at human P-gp T1226Y mutant expressed in HEK293FT cells assessed as fold change in intracellular doxorubicin accumulation using doxorubicin as substrate at 1 uM incubated for 150 mins by microplate reader assay relative to DMSO. It counts as cell-based. To be noted: 2.5 h.
Series [17] deals with T3, ATP-dependent translocase ABCB1. In words: Activation of P-gp ATPase activity in human P-gp Q1193F mutant expressed in HEK293FT cell microsomes at 20 uM incubated for 1 hr in presence of ATP by Glo-luminescence based microplate reader assay (reference value: 0.41 +/- 0.06 pmol/min/microg). On the set-up: species or system Microsome.
The target of series [18] is ATP-dependent translocase ABCB1 (Homo sapiens, UniProt P08183, I1115F). Put plainly: Activation of P-gp ATPase activity in human P-gp I1115F mutant expressed in HEK293FT cell microsomes at 20 uM incubated for 1 hr in presence of ATP by Glo-luminescence based microplate reader assay (reference value: 0.21 +/- 0.05 pmol/min/microg). More on the design: species or system Microsome.

Series [19] deals with P-gp (ABCB1) Q1193A mutant (Homo sapiens, UniProt P08183, Q1193A). Put plainly: Activation of P-gp ATPase activity in human P-gp Q1193A mutant expressed in HEK293FT cell microsomes assessed as fold change of ATPase activity at 20 uM incubated for 1 hr in presence of ATP by Glo-luminescence based microplate reader assay relative to DMSO. As to conditions: read-out: FC. More on the design: species or system Microsome.

Series [20] deals with P-gp (ABCB1) wildtype (Homo sapiens, UniProt P08183). In words: Activation of P-gp ATPase activity in wildtype human P-gp expressed in HEK293FT cell microsomes assessed as fold change of ATPase activity at 20 uM incubated for 1 hr in presence of ATP by Glo-luminescence based microplate reader assay relative to DMSO. On the set-up: species or system Microsome. As to conditions: microsomes of HEK293FT cells expressing wildtype human P-gp, read-out: FC.

T1 sequence (P08183 whole entry C1227A): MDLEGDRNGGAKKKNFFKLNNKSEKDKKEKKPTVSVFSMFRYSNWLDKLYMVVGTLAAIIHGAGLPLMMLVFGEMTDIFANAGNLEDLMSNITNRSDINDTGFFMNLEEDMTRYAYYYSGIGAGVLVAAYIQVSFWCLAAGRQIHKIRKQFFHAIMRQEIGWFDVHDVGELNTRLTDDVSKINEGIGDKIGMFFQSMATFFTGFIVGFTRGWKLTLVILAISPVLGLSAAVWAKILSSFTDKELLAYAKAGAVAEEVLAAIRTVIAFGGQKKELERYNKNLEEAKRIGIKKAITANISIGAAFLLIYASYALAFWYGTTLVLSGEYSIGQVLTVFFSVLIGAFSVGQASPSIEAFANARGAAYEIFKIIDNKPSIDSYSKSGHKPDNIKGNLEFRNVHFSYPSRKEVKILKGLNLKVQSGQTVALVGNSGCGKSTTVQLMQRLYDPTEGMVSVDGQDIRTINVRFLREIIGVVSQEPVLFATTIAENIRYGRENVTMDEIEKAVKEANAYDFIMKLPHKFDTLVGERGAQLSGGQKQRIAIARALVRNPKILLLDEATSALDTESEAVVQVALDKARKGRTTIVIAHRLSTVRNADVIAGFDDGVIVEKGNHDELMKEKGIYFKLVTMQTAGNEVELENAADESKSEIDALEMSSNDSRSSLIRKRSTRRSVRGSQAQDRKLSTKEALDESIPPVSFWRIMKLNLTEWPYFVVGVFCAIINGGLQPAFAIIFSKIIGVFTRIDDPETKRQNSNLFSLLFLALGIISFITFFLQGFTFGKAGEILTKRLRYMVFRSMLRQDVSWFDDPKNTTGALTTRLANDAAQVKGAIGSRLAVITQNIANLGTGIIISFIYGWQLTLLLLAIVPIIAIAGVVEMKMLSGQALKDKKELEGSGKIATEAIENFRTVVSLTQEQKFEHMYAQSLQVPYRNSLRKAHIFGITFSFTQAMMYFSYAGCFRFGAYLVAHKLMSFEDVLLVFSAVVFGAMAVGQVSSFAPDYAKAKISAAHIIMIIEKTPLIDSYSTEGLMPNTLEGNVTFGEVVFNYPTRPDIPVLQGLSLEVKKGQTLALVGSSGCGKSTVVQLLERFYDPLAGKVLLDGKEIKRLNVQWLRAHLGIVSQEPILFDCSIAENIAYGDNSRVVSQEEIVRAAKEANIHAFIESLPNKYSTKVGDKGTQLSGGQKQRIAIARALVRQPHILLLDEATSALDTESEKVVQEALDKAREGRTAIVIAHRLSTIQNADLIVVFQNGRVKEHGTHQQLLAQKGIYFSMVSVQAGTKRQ
T3 sequence (P08183 whole entry Q1193F): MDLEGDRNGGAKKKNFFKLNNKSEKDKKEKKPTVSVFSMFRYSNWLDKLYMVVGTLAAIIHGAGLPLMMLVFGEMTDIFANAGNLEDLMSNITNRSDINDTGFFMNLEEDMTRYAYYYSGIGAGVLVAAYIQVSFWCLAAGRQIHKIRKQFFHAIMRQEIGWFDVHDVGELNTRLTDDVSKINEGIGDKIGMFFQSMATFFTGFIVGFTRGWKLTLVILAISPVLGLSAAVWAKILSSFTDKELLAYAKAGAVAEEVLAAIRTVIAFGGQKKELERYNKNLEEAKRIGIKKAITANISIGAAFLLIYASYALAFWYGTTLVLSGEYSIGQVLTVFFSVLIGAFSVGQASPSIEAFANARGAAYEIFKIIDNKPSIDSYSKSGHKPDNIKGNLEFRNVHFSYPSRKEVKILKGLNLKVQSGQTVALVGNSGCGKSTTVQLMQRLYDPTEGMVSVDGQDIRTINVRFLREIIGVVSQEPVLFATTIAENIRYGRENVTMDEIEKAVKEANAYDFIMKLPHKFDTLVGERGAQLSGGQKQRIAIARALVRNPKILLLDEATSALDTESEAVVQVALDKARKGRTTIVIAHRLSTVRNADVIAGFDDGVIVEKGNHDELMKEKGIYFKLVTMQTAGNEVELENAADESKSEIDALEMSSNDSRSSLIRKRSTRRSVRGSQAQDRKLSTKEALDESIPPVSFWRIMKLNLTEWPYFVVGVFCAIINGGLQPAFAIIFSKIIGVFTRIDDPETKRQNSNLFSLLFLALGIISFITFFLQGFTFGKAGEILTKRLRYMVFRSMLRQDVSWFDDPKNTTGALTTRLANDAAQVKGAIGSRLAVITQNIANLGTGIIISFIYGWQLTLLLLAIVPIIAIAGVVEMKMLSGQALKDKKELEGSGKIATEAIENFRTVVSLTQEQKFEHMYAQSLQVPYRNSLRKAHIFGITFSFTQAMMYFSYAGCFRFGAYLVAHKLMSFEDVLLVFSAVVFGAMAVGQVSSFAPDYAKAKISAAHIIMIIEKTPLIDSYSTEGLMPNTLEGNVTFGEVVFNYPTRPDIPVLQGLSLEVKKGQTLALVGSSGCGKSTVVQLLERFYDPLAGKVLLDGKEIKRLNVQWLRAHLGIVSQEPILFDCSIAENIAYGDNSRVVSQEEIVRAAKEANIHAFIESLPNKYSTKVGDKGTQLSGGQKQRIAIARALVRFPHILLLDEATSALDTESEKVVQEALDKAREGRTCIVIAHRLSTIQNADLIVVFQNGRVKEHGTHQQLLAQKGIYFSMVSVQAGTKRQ
T2 sequence (P08183 whole entry T1226Y): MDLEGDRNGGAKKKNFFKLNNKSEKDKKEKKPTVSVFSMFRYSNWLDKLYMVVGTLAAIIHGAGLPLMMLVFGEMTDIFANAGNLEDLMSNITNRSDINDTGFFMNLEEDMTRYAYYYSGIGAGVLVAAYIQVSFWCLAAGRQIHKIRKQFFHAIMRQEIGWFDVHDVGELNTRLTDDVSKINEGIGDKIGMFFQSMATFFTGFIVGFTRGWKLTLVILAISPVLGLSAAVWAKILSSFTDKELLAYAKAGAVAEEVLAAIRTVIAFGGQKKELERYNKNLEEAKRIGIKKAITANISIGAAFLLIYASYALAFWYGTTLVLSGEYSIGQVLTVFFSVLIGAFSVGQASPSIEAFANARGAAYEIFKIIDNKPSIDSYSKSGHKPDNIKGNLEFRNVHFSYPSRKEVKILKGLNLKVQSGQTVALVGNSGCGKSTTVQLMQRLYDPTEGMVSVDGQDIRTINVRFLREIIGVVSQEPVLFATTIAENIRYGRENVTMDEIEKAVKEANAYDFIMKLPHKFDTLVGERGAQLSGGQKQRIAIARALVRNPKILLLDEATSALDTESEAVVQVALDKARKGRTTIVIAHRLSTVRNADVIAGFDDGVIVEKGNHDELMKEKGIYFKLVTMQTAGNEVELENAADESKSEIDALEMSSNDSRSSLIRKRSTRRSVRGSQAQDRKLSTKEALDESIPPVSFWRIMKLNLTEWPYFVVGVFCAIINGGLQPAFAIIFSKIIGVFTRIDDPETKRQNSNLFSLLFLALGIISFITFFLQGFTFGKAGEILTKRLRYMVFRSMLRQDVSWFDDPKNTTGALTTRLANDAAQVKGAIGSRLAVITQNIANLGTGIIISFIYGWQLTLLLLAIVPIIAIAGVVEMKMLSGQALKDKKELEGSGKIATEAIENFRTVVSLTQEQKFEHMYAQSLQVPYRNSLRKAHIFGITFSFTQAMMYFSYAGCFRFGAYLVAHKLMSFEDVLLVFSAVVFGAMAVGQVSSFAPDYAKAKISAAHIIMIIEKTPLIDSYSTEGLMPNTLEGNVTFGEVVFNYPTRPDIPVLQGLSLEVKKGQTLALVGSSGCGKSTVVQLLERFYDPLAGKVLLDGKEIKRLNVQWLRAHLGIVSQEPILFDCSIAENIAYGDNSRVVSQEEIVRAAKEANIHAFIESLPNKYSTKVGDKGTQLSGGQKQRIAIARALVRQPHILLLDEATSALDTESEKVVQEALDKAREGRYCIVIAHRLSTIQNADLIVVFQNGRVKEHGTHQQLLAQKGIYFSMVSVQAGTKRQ
Sequence of ATP-dependent translocase ABCB1 (Homo sapiens, UniProt P08183, Q1193A) (P08183 whole entry Q1193A): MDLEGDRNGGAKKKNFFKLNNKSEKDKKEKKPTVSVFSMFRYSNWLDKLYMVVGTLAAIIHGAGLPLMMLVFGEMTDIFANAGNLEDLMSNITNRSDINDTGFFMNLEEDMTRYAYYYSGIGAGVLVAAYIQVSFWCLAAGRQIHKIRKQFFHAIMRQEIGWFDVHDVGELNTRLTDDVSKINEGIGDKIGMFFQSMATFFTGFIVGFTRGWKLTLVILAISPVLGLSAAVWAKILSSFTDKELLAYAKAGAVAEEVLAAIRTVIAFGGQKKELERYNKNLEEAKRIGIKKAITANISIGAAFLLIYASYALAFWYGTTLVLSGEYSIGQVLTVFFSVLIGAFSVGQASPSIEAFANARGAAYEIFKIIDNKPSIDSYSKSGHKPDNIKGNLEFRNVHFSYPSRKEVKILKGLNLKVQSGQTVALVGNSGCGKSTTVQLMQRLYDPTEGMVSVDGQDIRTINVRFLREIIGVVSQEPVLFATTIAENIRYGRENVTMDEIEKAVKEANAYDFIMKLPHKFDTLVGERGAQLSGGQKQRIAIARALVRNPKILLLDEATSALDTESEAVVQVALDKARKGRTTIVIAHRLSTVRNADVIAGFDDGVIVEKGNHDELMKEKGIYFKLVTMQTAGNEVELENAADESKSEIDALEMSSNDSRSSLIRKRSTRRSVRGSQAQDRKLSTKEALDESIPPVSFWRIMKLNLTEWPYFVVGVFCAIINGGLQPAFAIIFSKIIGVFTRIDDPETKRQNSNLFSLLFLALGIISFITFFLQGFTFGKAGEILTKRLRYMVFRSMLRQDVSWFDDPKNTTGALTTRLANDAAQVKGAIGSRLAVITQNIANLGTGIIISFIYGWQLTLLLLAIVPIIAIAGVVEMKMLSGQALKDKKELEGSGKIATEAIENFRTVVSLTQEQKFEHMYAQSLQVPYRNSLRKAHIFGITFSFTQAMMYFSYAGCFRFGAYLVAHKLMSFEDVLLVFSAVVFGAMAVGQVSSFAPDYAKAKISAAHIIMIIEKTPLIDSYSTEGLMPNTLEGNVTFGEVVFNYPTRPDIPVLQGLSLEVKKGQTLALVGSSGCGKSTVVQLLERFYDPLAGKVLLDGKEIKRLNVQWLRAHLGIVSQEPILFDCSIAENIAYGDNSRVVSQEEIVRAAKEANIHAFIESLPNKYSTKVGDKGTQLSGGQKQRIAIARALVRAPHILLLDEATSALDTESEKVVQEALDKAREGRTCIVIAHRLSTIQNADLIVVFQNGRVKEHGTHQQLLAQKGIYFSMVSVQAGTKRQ

Turning to `O=c1cc(-c2ccc(OCCOCCNCc3ccccc3)cc2)oc2ccccc12`, the “fold change (FC)” value in [1] was found to be 4.3; in series [2], 67.7; in [3] it was 8.5; in series [11] it was 1.3; in [12], 1.2; in [13], 1. The entries for the “fold change (FC)” value in [14], in series [15] and in series [16] were 1, 1.7 and 1.5, respectively. For the same compound, the Activity in series [4] is 85.8%; in series [5], 82.2%; in series [6], 43.8%; in series [7] it was 71.4%; in series [8], 91.9%; in series [9] it was 95%. The values for the Activity in series [10], in [17] and in [18] were 104%, 0.45 pmol/min/µg and 0.25 pmol/min/µg, respectively. In addition, the fold induction at 1 h, 20 µM came out at 1.1 in series [19] and 1.6 in series [20].
